What was measured:
porcine CYP2A = settings: 16 μM compound; hepatic microsomes from male and female pigs; 200 μM coumarin
Method: (§1) Microsomes were prepared with a calcium aggregation method using Tris-EDTA homogenization buffer. Experiments were performed using pools of microsomes consisting of microsomes from two individual pigs. The total microsomal protein concentration was analyzed the same day using a commercially available kit (Bio-Rad Laboratories Inc., Hercules, CA, USA) according to the manufacturer's instructions. Microsomes were diluted to a protein concentration of 10 mg/mL and stored at −80°C until analysis.
Specific CYP450 activities were determined by incubating microsomes (diluted in 0.5 M potassium phosphate buffer (pH 7.4)) and adding 0.5 mM NADPH together with one of the following selective substrates (specific CYP450 target given in parentheses): 2 μM 7-ethoxyresorufin (CYP1A), 200 μM coumarin (CYP2A), 10 μM 7-benzyloxy-4-trifluoromethylcoumarin (CYP3A), and 200 μM p-nitrophenol (CYP2E1). For kinetic studies, concentrations of 7-ethoxyresorufin varied from 0.05 to 4 μM, concentrations of p-nitrophenol varied from 2.5 to 4000 μM, and concentrations of BFC varied from 0.1 to 150 μM. The corresponding metabolites were quantified by HPLC as previously described.
(§2) For quercetin, this concentration is approximately what can be found in liver of pigs fed a single dose of a quercetin enriched diet. The stock solutions of these compounds were prepared in methanol, and the final concentration of methanol was 0.1% in the incubation volumes. The same amount of methanol was added to the control incubations. Percentage inhibitions were calculated as differences between the activities in the control incubations (arbitrarily set to 100%) and in the presence of the specific compound.

porcine CYP3A = assay: Inhibition of CYP3A activity (7-benzyloxy-4-trifluoromethylcoumarin O-dealkylation) in porcine hepatic microsomes; assay type: in vitro ADME, pig; settings: for effect on CYP3A activity: 16 μM compound, hepatic microsomes from male and female pigs, 10 μM BFC; for reversibility of CYP3A inhibition (effect of a preincubation step): 5 min preincubation with NADPH at 37°C, male and female pigs; for Ki: pig, inhibitor 16, 32, 128 μM, BFC 0.1-150 μM
Method: as §1
(§3) Specific CYP450 activities were determined by incubating microsomes (diluted in 0.5 M potassium phosphate buffer (pH 7.4)) and adding 0.5 mM NADPH together with one of the following selective substrates (specific CYP450 target given in parentheses): 2 μM 7-ethoxyresorufin (CYP1A), 200 μM coumarin (CYP2A), 10 μM 7-benzyloxy-4-trifluoromethylcoumarin (CYP3A), and 200 μM p-nitrophenol (CYP2E1). […] The corresponding metabolites were quantified by HPLC as previously described.
as §2
(§4) For that microsomes were preincubated with the tested compound in the presence of NADPH for 5 min (CYP1A, CYP3A) or 15 min (CYP2E1) at 37°C before the addition of specific substrate. […] The incubation time and the amount of the microsomal protein were in the linear range for the rate of metabolite formation. All measurements were performed in duplicate.
(§5) Kinetic parameters (Michaelis-Menten constant K m, maximal velocity of the reaction V max, and dissociation constant for inhibitor binding K i) were estimated by fitting data to the Michaelis-Menten equation using GraphPad Prism (version 4.0 for Windows, GraphPad Software (San Diego, California, USA)). Visual inspection of the plots was used to estimate whether inhibition degree was affected by inclusion of the preincubation step.

porcine CYP2E1 = porcine CYP2E1 (Sus scrofa, UniProt P79383); assay: Inhibition of CYP2E1 activity (p-nitrophenol hydroxylation) in porcine hepatic microsomes; assay type: in vitro ADME, pig; settings: for effect on CYP2E1 activity: 16 μM compound
Method: as §1, §3, §2, §4, §5

porcine CYP1A = assay: Inhibition of CYP1A activity (7-ethoxyresorufin O-deethylation) in porcine hepatic microsomes; assay type: in vitro ADME, pig; settings: for effect on CYP1A activity: 16 μM compound, hepatic microsomes from male and female pigs, 2 μM 7-ethoxyresorufin; for effect of a preincubation step on inhibition of CYP1A: 5 min preincubation with NADPH at 37°C, male and female pigs; for effect of a preincubation step on inhibition of CYP1A / Ki: inhibitor 16, 32, 128 μM; for Ki: 7-ethoxyresorufin 0.1-4 μM
Method: as §1, §3, §2, §4, §5

[1] = hepatic microsomes from male and female pigs, 200 μM p-nitrophenol
[2] = pig, pH 7.4, hepatic microsomes from female pigs
[3] = pig, pH 7.4, hepatic microsomes from male pigs
[4] = hepatic microsomes from female pigs

Sequence of porcine CYP2E1 (P79383 whole entry): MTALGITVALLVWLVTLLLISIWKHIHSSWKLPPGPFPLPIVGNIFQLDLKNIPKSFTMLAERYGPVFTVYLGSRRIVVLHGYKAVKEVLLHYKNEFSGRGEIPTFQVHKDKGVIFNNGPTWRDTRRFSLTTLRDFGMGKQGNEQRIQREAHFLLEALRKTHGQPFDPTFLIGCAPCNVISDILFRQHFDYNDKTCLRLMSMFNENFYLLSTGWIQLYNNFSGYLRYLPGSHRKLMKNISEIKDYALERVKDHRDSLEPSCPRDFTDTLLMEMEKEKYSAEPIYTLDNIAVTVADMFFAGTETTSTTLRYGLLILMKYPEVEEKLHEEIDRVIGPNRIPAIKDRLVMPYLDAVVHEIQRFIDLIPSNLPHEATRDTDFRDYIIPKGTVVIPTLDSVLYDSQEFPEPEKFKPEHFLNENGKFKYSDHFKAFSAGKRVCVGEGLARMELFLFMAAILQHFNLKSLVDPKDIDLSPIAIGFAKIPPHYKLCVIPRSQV

| SMILES | effect on CYP2A activity (porcine CYP2A) | effect on CYP3A activity (porcine CYP3A) | effect on CYP2E1 activity (porcine CYP2E1; [1]) | effect on CYP1A activity (porcine CYP1A) | other results |
| --- | --- | --- | --- | --- | --- |
| O=C(O)/C=C/c1ccc(O)c(O)c1 [caffeic acid] | did not alter activity | did not alter activity | did not alter activity | did not alter activity | – |
| O=C(O)c1cc(O)c(O)c(O)c1 [gallic acid] | – | did not alter activity | did not alter activity | – | – |
| COc1cc(-c2oc3cc(O)cc(O)c3c(=O)c2O)ccc1O [isorhamnetin] | did not affect | decreased | did not affect | – | reversibility of CYP3A inhibition (effect of a preincubation step) (porcine CYP3A): reversible inhibition; Ki (porcine CYP3A; pH 7.4, hepatic microsomes from female pigs): 93.7 ± 61.3 µM; Ki (porcine CYP3A; pH 7.4, hepatic microsomes from male pigs): 71.2 ± 20.2 µM; effect of a preincubation step on inhibition of CYP1A (porcine CYP1A): did not affect; Ki (porcine CYP1A; [2]): 10.8 ± 2.8 µM; Ki (porcine CYP1A; [3]): 99.9 ± 77.6 µM |
| O=c1c(O)c(-c2cc(O)c(O)c(O)c2)oc2cc(O)cc(O)c12 [myricetin] | did not affect | decreased | did not affect | – | reversibility of CYP3A inhibition (effect of a preincubation step) (porcine CYP3A): reversible inhibition; Ki (porcine CYP3A; liver microsomes, pH 7.4, probe 7-benzyloxy-4-trifluoromethylcoumarin (BFC), hepatic microsomes from male pigs): 113 ± 20.8 µM; effect of a preincubation step on inhibition of CYP1A (porcine CYP1A): did not affect; Ki (porcine CYP1A; [2]): 4.4 ± 3.4 µM; Ki (porcine CYP1A; [3]): 2.5 ± 0.9 µM |
| O=C(O)/C=C/c1ccc(O)cc1 [p-coumaric acid] | did not alter activity | did not alter activity | did not alter activity | did not alter activity | – |
| O=c1c(O)c(-c2ccc(O)c(O)c2)oc2cc(O)cc(O)c12 [quercetin] | – | did not affect | – | – | effect on CYP2E1 activity (porcine CYP2E1; [4]): No effect; reversibility of CYP2E1 inhibition (effect of a preincubation step) (porcine CYP2E1; 15 min preincubation with NADPH at 37°C, male pigs): reversible inhibition; Ki (porcine CYP2E1; hepatic microsomes from male pigs, inhibitor 16, 32, 128 μM, p-nitrophenol 0.25-4000 μM): 94.2 ± 13.5 µM; mode of inhibition of CYP1A (porcine CYP1A; [4]): irreversible inhibition; IC50 (porcine CYP1A; pig, liver microsomes, pH 7.4, probe 7-ethoxyresorufin (2 μM), hepatic microsomes from female pigs, with 5 min preincubation with NADPH): 2.5 µM; Ki (porcine CYP1A; pig, liver microsomes, pH 7.4, probe 7-ethoxyresorufin (0.1-4 μM; O-deethylation), hepatic microsomes from male pigs): 0.16 ± 0.03 µM |
| C[C@@H]1O[C@@H](OC[C@H]2O[C@@H](Oc3c(-c4ccc(O)c(O)c4)oc4cc(O)cc(O)c4c3=O)[C@H](O)[C@@H](O)[C@@H]2O)[C@H](O)[C@H](O)[C@H]1O [rutin] | did not alter activity | did not alter activity | did not alter activity | did not alter activity | – |

Reference: publication PMC4317639, “In Vitro Gender-Dependent Inhibition of Porcine Cytochrome P450 Activity by Selected Flavonoids and Phenolic Acids” (BioMed Research International, 2015)
